Test results published in US9677109B2, “Rapid determination of microbial growth and antimicrobial susceptibility” (priority 2013, dated 2017).

What was measured:
K. pneumoniae = test: 2-NBDG uptake fluorescence labeling; assay type: cell-based; details: overnight refrigerator stock, approximately 1 min, 1 μM 2-NBDG
Description: (§1) 2-NBDG (Molecular Probes) is a fluorescent derivative (green channel) of D-glucose that is internalized by active bacteria.

H. influenzae = test: 2-NBDG uptake fluorescence labeling; assay type: cell-based; details: overnight refrigerator culture, viability verified
Description: as §1

E. coli [1] = test: 2-NBDG uptake fluorescence labeling; assay type: cell-based; details: overnight refrigerator stock, approximately 1 min, 1 μM 2-NBDG
Description: as §1

S. aureus = test: 2-NBDG uptake fluorescence labeling; assay type: cell-based; details: overnight refrigerator culture, viability verified
Description: as §1

Enteric = test: MADM (BACcel) growth analysis sensitivity, surveillance mini-BAL; assay type: cell-based; details: specimen 005-D7, BACcel ID Enteric, 1.26 × 10^5 CFU/ml
Method: (§2) Adult MICU patients with identified surrogate were included within 72 hours of intubation and if anticipated to require MV for >48 h. Moribund state or pregnancy were exclusions. Surveillance mini-BAL (Combicath, Plastimed) was performed on Day 1, 3, 5, 7 and 10 of MV. Samples were split and processed for both a) routine respiratory quantitative microbiological culture and sensitivity assays (>48 h result availability) and b) rapid (<8 h) flowcell/surface-capture assays using the MADM system. Viable microorganisms were identified using growth analysis enhanced by a focused VAP antibody panel (S. aureus, P. aeruginosa, A. baumannii). Untypable organisms were also reported. Sensitivity was assessed using growth analysis. Attending physicians were blinded to MADM system results.
(§3) BAL sample were prepared, removing debris and separating microorganisms from other sample material. Sample microorganisms were introduced into a multichannel fluidic cassette as described elsewhere herein. Bacteria were concentrated and retained on the lower surface of all flowcells using low-voltage electrical field (5 min). Antibody labeling of bacteria in flowcells was used to aid identification.
(§4) The automated digital microscopy system was used to perform darkfield imaging of 10 fields of view every 10 minutes for 180 minutes in each flowcell channel. Initial epifluorescence imaging was also performed for antibody detection. […] Identification consisted of probability scores based on microorganism morphology and growth rates. Antibody labeling identification data was also incorporated. Observed microorganisms were then classified as STAU, PSAE, or non-target. Antibiotic responses were used to aid identification when appropriate. Quantitation was performed by counting identified microorganism and computing original specimen CFU/mL.

S. maltophilia (Steno) = test: as above; assay type: cell-based
Method: as §2, §3, §4

[2] = test system: Pseudomonas aeruginosa (PSAE); test: Culture (Cx) susceptibility result, respiratory specimens; assay type: cell-based
Method: (§5) DHMC specimens were 7-21 days old. […] Controls used standard culturing methods (Cx).
(§6) (ABCC). Concurrent quantitative culture (qCx) was performed on specimens.

[3] = test system: Acinetobacter spp. (ABCC); test: as above; assay type: cell-based, Acinetobacter sp.; details: ABCC specimen (specimen id not given)
Method: as §5, §6

[4] = test system: Pseudomonas aeruginosa (PSAE); test: MADM resistance phenotype test, respiratory specimens; assay type: cell-based; details: for MADM resistance phenotype: PSAE
Method: as §6
(§7) 20 μL samples of prepared specimen were pipetted into independent flowcell channels and a low-voltage electrical field was applied for 5 minutes. The electrical field concentrated bacteria onto a functional surface coating that immobilized the bacteria on the lower flowcell surface. Each flowcell channel received only one type of test reagent solution that contained a selective agent if required (only for channels used to test AB, sulbactam 32 μg/mL).
(§8) The instrument acquired images at 10-minutes intervals for 180 minutes, using 10 fields of view in each flowcell channel through a 20× objective. Imaging used darkfield illumination. Identification variables included response to selective agents (AB with sulbactam), cell morphology, growth morphology, and growth rate.
(§9) Identification algorithms applied to each individual immobilized bacterial cell. The system measured the amount of change in mass over time to compute growth rates. Identification consisted of computing and combining probability scores for morphology, response to selective media, and growth rates to produce a receiver operating characteristic curve (ROC) to derive classification criteria.

[5] = test system: Acinetobacter spp. (ABCC); test: as above; assay type: cell-based, Acinetobacter sp.; details: for MADM resistance phenotype: ABCC specimen (specimen id not given)
[6] = test system: Staphylococcus aureus (STAU); test: Culture (Cx) susceptibility result, respiratory specimens; assay type: cell-based; also: key: S: susceptible; R: resistant
Method: as §5, §6

[7] = test system: Staphylococcus aureus (STAU); test: MADM resistance phenotype test, respiratory specimens; assay type: cell-based
Method: as §6, §7, §8, §9

E. coli [8] = test: DiBAC4(3) membrane potential staining; assay type: cell-based; details: heat-killed E. coli, 10 g/ml DiBAC4(3), 15 min at room temp
Method: DiBAC4(3) (Molecular Probes) is an anionic dye that enters depolarized cells (i.e., cells lacking a membrane potential) and fluoresces in the […] channel when it binds to intracellular proteins or membranes. Using this indicator, 18.5% of an overnight refrigerator stock (control) and 95% of heat-killed E. coli stained with 10 µg/ml DiBAC4(3) after a 15 min incubation period at room temp.

[9] = test system: Klebsiella pneumoniae (KP); test: MADM ertapenem nonsusceptibility / KPC assay; assay type: cell-based
Method: We adapted a commercial inverted microscope and camera with custom image analysis software and a purpose-built 32-channel disposable fluidic cassette (FIG. 4A). Cassette flowcells (FIG. 4B) had transparent top and bottom surfaces to allow microscope imaging. The bottom surface was coated with poly-L-lysine to immobilize live bacteria.
We grew isolates on blood agar, suspended colonies in tryptic soy broth for 2 hours, then centrifuged and resuspended log-phase bacteria in low ionic strength electrokinetic buffer.
MADM system analysis was performed using a 32-channel disposable fluidic cassette (FIG. 4A) to measure growth of immobilized bacteria. We separately tested PA clinical isolates for nonsusceptibility (NS) with amikacin (AN) at 32 μg/mL, and AB isolates with imipenem (IMP) at 8 μg/mL or ceftazidime (CAZ) at 8 μg/mL.
10 μL aliquots of 5E+7 CFU/mL were pipetted into separate flowcells for each isolate and test condition. Microorganisms were electrokinetically concentrated onto the flowcell detection surface with an electrical field to the positively charged lower surface to immobilize cells and yield 10-100 bacteria per field of view (FIG. 4B). […] The system measured growth at 10-minute intervals. […] Growth was evaluated, interpreting results for PA, AB, and KP-ETP as NS if growth had not arrested within 3 hours. […]

E. coli [10] = test: Plasmolysis (cell size response to osmotic pressure); assay type: cell-based; details: exposed to 0.9% NaCl
Description: Plasmolysis is a method of detecting membrane integrity by exposing cells to a very hypertonic solution, such as may be performed by subjecting a cell to osmotic pressure by manipulating the concentration of a solute, for example, sodium chloride.

damaged membranes = test: Propidium iodide membrane integrity staining; assay type: cell-based; details: compared with YO-PRO-1
Description: Propidium iodide (PI; Sigma) is another red fluorescent DNA-intercalcater that penetrates damaged membranes but not intact membranes.

[11] = test system: heat-killed cells and isopropyl alcohol killed cells; test: CFDA/CFDA-SE esterase fluorescence in killed cells; assay type: cell-based; details: two hour post-heat-kill delay
Description: Carboxyfluorescein diacetate/carboxyfluorescein diacetate succinimidyl ester (CFDA/CFDA-SE; Molecular Probes) compounds are converted into amine-reactive fluorescent molecules when cleaved by esterases present within active cells. When CFDA-SE is taken up by live cells, the fluorescent molecule produced by esterase cleavage and amine reaction is retained inside the cell. […] The product formed by uptake and processing of CFDA, on the other hand, should be more “leaky” over time and may exit a dead cell. […] Shorter delay times have not yet been investigated but may be compatible with avoiding false positive results while providing a shorter assay period.

[12] = specimen 006-D1, BACcel ID Steno, 7.68 × 10^5 CFU/ml
[13] = specimen 006-D3, BACcel ID Steno, 1.60 × 10^4 CFU/ml

O=[N+]([O-])c1ccc(N[C@H]2C(O)O[C@H](CO)[C@@H](O)[C@@H]2O)c2nonc12 (stereo partly drawn) [2-NBDG]
did not fluoresce: fluorescent labeling (H. influenzae) | fluorescent labeling (S. aureus)
fluorescently labeled: fluorescent labeling (K. pneumoniae) | fluorescent labeling (E. coli [1])

CC(C)(O/N=C(\C(=O)N[C@@H]1C(=O)N2C(C(=O)[O-])=C(C[n+]3ccccc3)CS[C@H]12)c1csc(N)n1)C(=O)O [CAZ, ceftazidime]
growth, TZP-: Phenotype, sensitivity (S. maltophilia (Steno); [12]) | Phenotype, sensitivity (S. maltophilia (Steno); [13])
all growth: Phenotype, sensitivity (Enteric)

C[C@@H](O)[C@H]1C(=O)N2C(C(=O)O)=C(SCCN=CN)C[C@H]12 [IMP, imipenem]
S: Cx (culture result) susceptibility ([2]; specimen DH 430, Mini-BAL) | Cx (culture result) susceptibility ([2]; specimen DH 554, BAL) | Cx (culture result) susceptibility ([2]; specimen DH 641, Mini-BAL) | Cx (culture result) susceptibility [3] | MADM resistance phenotype ([4]; specimen DH 430, Mini-BAL) | MADM resistance phenotype ([4]; specimen DH 554, BAL) | MADM resistance phenotype ([4]; specimen DH 641, Mini-BAL) | MADM resistance phenotype [5]

Cc1onc(-c2ccccc2)c1C(=O)N[C@@H]1C(=O)N2[C@@H]1SC(C)(C)[C@@H]2C(=O)O [OXA, oxacillin]
R: Cx (culture result) susceptibility ([6]; specimen DH 439, Mini-BAL) | Cx (culture result) susceptibility ([6]; specimen T12, ETA)
S: Cx (culture result) susceptibility ([6]; specimen DH 425, Mini-BAL) | Cx (culture result) susceptibility ([6]; specimen DH 427, Mini-BAL) | Cx (culture result) susceptibility ([6]; specimen DH 440, BAL) | Cx (culture result) susceptibility ([6]; specimen DH 457, BAL) | Cx (culture result) susceptibility ([6]; specimen DH 485, BAL) | Cx (culture result) susceptibility ([6]; specimen DH 509, BAL) | Cx (culture result) susceptibility ([6]; specimen DH 514, Mini-BAL) | Cx (culture result) susceptibility ([6]; specimen DH 543, BAL) | Cx (culture result) susceptibility ([6]; specimen DH 550, BAL) | Cx (culture result) susceptibility ([6]; specimen DH 556, Mini-BAL)

CCC[C@@H]1C[C@@H](C(=O)N[C@@H]([C@H]2O[C@H](SC)[C@H](O)[C@@H](O)[C@H]2O)[C@H](C)Cl)N(C)C1 [CLI, clindamycin]
S: Cx (culture result) susceptibility ([6]; specimen DH 425, Mini-BAL) | Cx (culture result) susceptibility ([6]; specimen DH 427, Mini-BAL) | Cx (culture result) susceptibility ([6]; specimen DH 439, Mini-BAL) | Cx (culture result) susceptibility ([6]; specimen DH 440, BAL) | Cx (culture result) susceptibility ([6]; specimen DH 457, BAL) | Cx (culture result) susceptibility ([6]; specimen DH 485, BAL) | Cx (culture result) susceptibility ([6]; specimen DH 509, BAL) | Cx (culture result) susceptibility ([6]; specimen DH 514, Mini-BAL) | Cx (culture result) susceptibility ([6]; specimen DH 543, BAL) | Cx (culture result) susceptibility ([6]; specimen DH 550, BAL) | Cx (culture result) susceptibility ([6]; specimen DH 556, Mini-BAL) | Cx (culture result) susceptibility ([6]; specimen T12, ETA) | MADM resistance phenotype ([7]; specimen DH 425, Mini-BAL) | MADM resistance phenotype ([7]; specimen DH 427, Mini-BAL) | MADM resistance phenotype ([7]; specimen DH 439, Mini-BAL) | MADM resistance phenotype ([7]; specimen DH 440, BAL) | MADM resistance phenotype ([7]; specimen DH 457, BAL) | MADM resistance phenotype ([7]; specimen DH 485, BAL) | MADM resistance phenotype ([7]; specimen DH 509, BAL) | MADM resistance phenotype ([7]; specimen DH 514, Mini-BAL) | MADM resistance phenotype ([7]; specimen DH 543, BAL) | MADM resistance phenotype ([7]; specimen DH 550, BAL) | MADM resistance phenotype ([7]; specimen DH 556, Mini-BAL) | MADM resistance phenotype ([7]; specimen T12, ETA)

CCCCN1C(=O)C(=CC=Cc2c(O)n(CCCC)c(=O)n(CCCC)c2=O)C(=O)N(CCCC)C1=O [DiBAC4(3)]
95%: cells stained (E. coli [8])

C[C@@H](O)[C@H]1C(=O)N2C(C(=O)O)=C(S[C@@H]3CN[C@H](C(=O)Nc4cccc(C(=O)O)c4)C3)[C@H](C)[C@H]12 [ETP, ertapenem]
abnormal growth morphology: growth morphology ([9]; ETP exposure, KPC clinical isolate, FIG. 19)
fail to grow: growth of susceptible strains ([9]; ETP at 16 μg/mL, FIG. 20)

[Cl-].[Na+] [NaCl, sodium chloride]
77%: cells decreasing in size (E. coli [10]; overnight refrigerator stock cultures)
90%: cells that did not exhibit a response (E. coli [10]; heat killed cells)

CC[N+](C)(CC)CCC[n+]1c(-c2ccccc2)c2cc(N)ccc2c2ccc(N)cc21.[I-].[I-] [PI, Propidium iodide]
not as high as for YO-PRO-1: fluorescent signal intensity vs. background (damaged membranes)

carboxyfluorescein diacetate succinimidyl ester [CFDA-SE]
no fluorescence was observed: fluorescence [11]

NCC[C@H](O)C(=O)N[C@@H]1C[C@H](N)[C@@H](O[C@H]2O[C@H](CN)[C@@H](O)[C@H](O)[C@H]2O)[C@H](O)[C@H]1O[C@H]1O[C@H](CO)[C@@H](O)[C@H](N)[C@H]1O [AN, amikacin]
susceptible: susceptibility ([4]; all PSAE-containing specimens) | susceptibility ([5]; all ABCC-containing specimens)
S: Cx (culture result) susceptibility ([2]; specimen DH 430, Mini-BAL) | Cx (culture result) susceptibility ([2]; specimen DH 554, BAL) | Cx (culture result) susceptibility ([2]; specimen DH 641, Mini-BAL) | MADM resistance phenotype ([4]; specimen DH 430, Mini-BAL) | MADM resistance phenotype ([4]; specimen DH 554, BAL) | MADM resistance phenotype ([4]; specimen DH 641, Mini-BAL) | MADM resistance phenotype [5]
growth, TZP-: Phenotype, sensitivity (S. maltophilia (Steno); [12]) | Phenotype, sensitivity (S. maltophilia (Steno); [13])
